Results: patent US9427474B2, “Conjugates of a polymer, a bisphosphonate and an anti-angiogenesis agent and uses thereof in the treatment and monitoring of bone related diseases” (Ramot at Tel-Aviv University Ltd., priority 2008, dated 2016)
HPMA copolymer = not defined here

Assays:
[1] = system: DA3 murine mammary cancer cells; experiment: Antitumor activity in vivo, mCherry-labeled DA3 tumors in the tibia; parameters: species or system Balb/c female mice; conditions: 9 days of treatment
Experimental: 9 Balb/c female mice (n=3 per group) were injected intra tibia with 5×10^5 mCherry-labeled DA3 murine mammary cancer cells. […] (SEQ ID NO: 12) or with vehicle (1:1:8 cremophor EL:ethanol:saline). Therapy was initiated 10 days after tumor cells injection. Tumor progression was monitored by CRI™ Maestro non-invasive intravital imaging system. At termination, tibias were weighed and analyzed. Data is expressed as mean±standard error of the mean (s.e.m.).
Balb/c female mice bearing mCherry-labeled DA3 tumors in the tibia were treated with free and conjugated ALN and PTX (1:1.6, 1.25 mg/kg ALN and 2 mg/kg PTX, every day). Tumor growth rates were measured and monitored by mCherry fluorescence signal using CRI™ Maestro non-invasive intravital imaging system.

[2] = system: human prostate cell line PC3; experiment: PC3 cell proliferation assay (XTT); assay type: cell-based
Experimental: Human Umbilical vain endothelial cells (HUVEC) were plated onto 24-well plate (1×10^4 cells/well) in growth factors reduced media, (EBM-2, Cambrex, USA) supplemented with 5% Fetal Bovine Serum (FBS). Following 24 hours of incubation (37° C.; 5% CO2) medium was replaced with EGM-2 (Cambrex, USA). PC3 cells were plated onto 96 well plate (2×10^3 cells/well) in DMEM supplemented with 5% FBS and incubated for 24 hours (37° C.; 5% CO2). Following 24 hours of incubation medium was replaced with DMEM containing 10% FBS. Cells were challenged with a combination of paclitaxel and ALN, a combination of Paclitaxel-FK and ALN, with each drug alone, and with […] (SEQ ID NO: 12), at serial concentrations for 72 hours. Control cells were grown with or without growth factors. After incubation HUVEC and PC3 were counted by Coulter Counter or by XTT respectively.

HUVEC = HUVEC cell proliferation assay; assay type: cell-based, human; conditions: for IC50: 48 hours incubation, Paclitaxel-equivalent, read-out: IC50, proliferation of HUVECs
Experimental: Human Umbilical vain endothelial cells (HUVEC) were plated onto 24-well plate (1×10^4 cells/well) in growth factors reduced media, (EBM-2, Cambrex, USA) supplemented with 5% Fetal Bovine Serum (FBS). Following 24 hours of incubation (37° C.; 5% CO2) medium was replaced with EGM-2 (Cambrex, USA). PC3 cells were plated onto 96 well plate (2×10^3 cells/well) in DMEM supplemented with 5% FBS and incubated for 24 hours (37° C.; 5% CO2). Following 24 hours of incubation medium was replaced with DMEM containing 10% FBS. […] Control cells were grown with or without growth factors. After incubation HUVEC and PC3 were counted by Coulter Counter or by XTT respectively.

With `CC(=O)O[C@H]1C(=O)[C@@]2(C)[C@H]([C@H](OC(=O)c3ccccc3)[C@]3(O)C[C@H](OC(=O)[C@H](O)[C@@H](NC(=O)c4ccccc4)c4ccccc4)C(C)=C1C3(C)C)[C@]1(OC(C)=O)CO[C@@H]1C[C@@H]2O` [PTX, paclitaxel] the “antitumor effect (in words)” value [1] was “no therapeutic effect”, the “antitumor effect (in words)” value ([1]; listed as Free PTX) was “no antitumor effect” and the “antitumor effect (in words)” value ([1]; listed as free PTX) was “unaffected”. For the same compound, the IC50 ([2]; Homo sapiens, PC-3, 72 hours, PTX alone, read-out: IC50, proliferation of PC3 cells) was 1 µM.

With “HPMA copolymer-GGFK-PTX conjugate: cathepsin B-enzymatically cleavable HPMA copolymer conjugate of paclitaxel ({HPMA copolymer}-GGFK-paclitaxel; reading uncertain; also: conjugated to HPMA copolymer, conjugated to paclitaxel (PTX))” the IC50 (HUVEC) was ~0.1 µM.

For “HPMA copolymer-GGGG-PTX conjugate ({HPMA copolymer}-GGGG-paclitaxel; reading uncertain; also: conjugated to HPMA copolymer, conjugated to paclitaxel (PTX))”, the “concentration inhibiting HUVEC proliferation relative to cathepsin B cleavable HPMA-GGFK-PTX conjugate” value (HUVEC; 48 hours) was 2 logs and the IC50 (HUVEC) was ~10 µM.

`NCCCC(O)(P(=O)(O)O)P(=O)(O)O` [ALN, (4-amino-1-hydroxybutylidene)bisphosphonic acid] was tested, and the “effect on the proliferation of PC3 cells” value ([2]; concentrations tested 0.01 nM-10 μM, alone or combined with PTX or PTX-FK) was “no effect”, the “concentration at which proliferation of HUVEC was inhibited (only the highest dose tested)” value (HUVEC; ALN alone) was 6.25 µM and the “additional effect on proliferation of HUVEC when combined with Paclitaxel or Paclitaxel-FK” value (HUVEC; tested concentrations 10 μM-0.001 nM) was “no additional effect”.
